In US11944605B2, “Rapamycin analogs and uses thereof” (Janssen Pharmaceutica NV, priority 2018, dated 2024):

Columns and labels:
mTORC1 over mTORC2 = assay: mTORC1 selectivity over mTORC2 at 24 hrs (Western blot based pS6K1 and pAKT assay); format: cell-based; details: 24 hrs
Protocol: Western Blot Based pS6K1 and pAKT Assay at 24 and 48 Hour Timepoints
1. Seed six well plate with 500,000 PC3 cells per well and incubate for 20˜24 hour.
2. Add compounds into the cell plate. Incubate for 24 to 48 hours.
4. Plate is placed on ice and the media is removed via aspiration. The wells are washed with 1 mL of 1× PBS and then fully aspirated.
5. 110 μL of 1% Triton Lysis Buffer is added and each well is scraped vigorously.
6. Cell homogenates are transferred to 1.5 mL eppendorf tubes on ice and spun down at 4° C. for 10 minutes at 10,000 rpm.
9. The membranes were washed 3× with TBS-T with a 5 minute incubation between each wash then incubated with secondary antibody (LiCor IRDye 800 Donkey Anti Rabbit) for at least 30 minutes.
10. The membranes were washed 3× with TBS-T with a 5 minute incubation between each wash.
11. The gels were then incubated for 5 minutes with PBS at room temperature then imaged using a Li-Cor.
“N/A” stands for “not assayed.”

[1] = system: pS6K1 (p-p70 S6 Kinase (Thr389)) in MCF-7 cells; assay: AlphaLISA Ultra pS6K1 Assay; format: cell-based; details: Homo sapiens, 1.5 h; MCF7 cells, 90 min
Protocol: AlphaLISA Ultra pS6K1 Assay
1. Seed MCF-7 cells in Corning 3701 plate and incubate for 20˜24 hour. 12,000˜16,000 cells will be seeded in 36 μL medium per well.
2. Change the culture medium with fresh medium and incubate for another 2 hours.
3. Add 12 μL (4×) compounds into the cell plate by HAMILTON. Final DMSO concentration is 0.5%. Incubate for 90 minutes.
4. Aspirate […] by HAMILTON, 10 μL rest per well.
5. Add 10 μL 2× lysis buffer using HAMILTON; total volume in wells is 20 μL. Allow cells to shake for 30 min. Cover plate by plastic foil and store plate at −80° C. up to analysis.
6. Thaw cell lysate at RT and transfer 10 μL lysate to assay plate (Optiplate-384).
7. Add 5 μL acceptor beads into assay plate and incubation for 2 hours
8. Add 5 μL donor beads and incubation for 2 hours
9. Count the plate by EnSpire Multimode Plate Reader

| IC50 [1] [nM] | SMILES | mTORC1 selective @ 24 hrs (mTORC1 over mTORC2) |
| --- | --- | --- |
| < 0.1 | CO[C@@H]1CC(C[C@@H](C)C2CC(=O)[C@H](C)/C=C(\C)[C@@H](O)[C@@H](OC)C(=O)[C@H](C)C[C@H](C)/C=C/C=C/C=C(\C)C(OCCOCC(F)(F)F)C[C@@H]3CC[C@@H](C)[C@@](O)(O3)C(=O)C(=O)N3CCCC[C@H]3C(=O)O2)CC[C@H]1OCCO (stereo partly drawn) [I-77, (21E,23E,25E,26E,33R,34S,35R,36R,38S,40S,43S,44R,45R,54R)-44, 54-dihydroxy-43-[(1R)-2-[(1S,3R,4R)-4-(2-hydroxyethoxy)-3-methoxy-cyclohexyl]-1-methyl-ethyl]-45-methoxy-33, 34,35,36,46,47-hexamethyl-42-[2-(2,2,2-trifluoroethoxy)ethoxy]-65,66-dioxa-56-azatricyclohexatriaconta-21, 23,25(46),26(47)-tetraene-48,49,50,51,52-pentone] | YES |
| 0.1 to 1 | CO[C@@H]1C[C@H](C[C@@H](C)[C@@H]2CC(=O)[C@H](C)/C=C(\C)[C@@H](O)[C@@H](OC)C(=O)[C@H](C)C[C@H](C)/C=C/C=C/C=C(\C)[C@H](OCCOCCOCC(F)(F)F)C[C@@H]3CC[C@@H](C)[C@@](O)(O3)C(=O)C(=O)N3CCCC[C@H]3C(=O)O2)CC[C@H]1OCCO [I-84] | YES |
| 0.1 to 1 | COCCOCCO[C@@H]1C[C@@H]2CC[C@@H](C)[C@@](O)(O2)C(=O)C(=O)N2CCCC[C@H]2C(=O)O[C@H]([C@H](C)C[C@@H]2CC[C@@H](OCCO)[C@H](OC)C2)CC(=O)[C@H](C)/C=C(\C)[C@@H](O)[C@@H](OC)C(=O)[C@H](C)C[C@H](C)/C=C/C=C/C=C/1C [I-104, (22E,24E,26E,27E,35R,36S,37R,38R,40S,42S,44R,45S,46R,47R,56R)-46, 56-dihydroxy-45-[(1R)-2-[(1S,3R, 4R)-4-(2-hydroxyethoxy)-3-methoxy-cyclohexyl]-1-methyl-ethyl]-47-methoxy-44-[2-(2-methoxyethoxy)ethoxy]-35,36,37,38,48,49-hexamethyl-66, 67-dioxa-57-azatricyclohexatriaconta-22,24,26(48),27(49)-tetraene-50,51,52,53,54-pentone] | YES |
| ≥ 100 | CO[C@@H]1C[C@H](C[C@@H](C)[C@@H]2CC(=O)[C@H](C)/C=C(\C)[C@@H](O)[C@@H](OC)C(=O)[C@H](C)C[C@H](C)/C=C/C=C/C=C(\C)[C@H](OCC3COCCOCCOCCOCCO3)C[C@@H]3CC[C@@H](C)[C@@](O)(O3)C(=O)C(=O)N3CCCC[C@H]3C(=O)O2)CC[C@H]1O (stereo partly drawn) [I-107, (30E,32E,34E,35E,38R,39S,40R,41R,43S,45S,47R,48S,50R,51R,60R)-50, 60-dihydroxy-48-[(1R)-2-[(1S,3R,4R)-4-hydroxy-3-methoxy-cyclohexyl]-1-methyl-ethyl]-51-methoxy-38, 39,40,41,52,53-hexamethyl-47-(1,4,7,10,13-pentaoxacyclopentadec-2-ylmethoxy)-75, 76-dioxa-61-azatricyclohexatriaconta-30,32,34(52),35(53)-tetraene-54,55,56,57,58-pentone] | YES |
| 0.1 to 1 | CO[C@@H]1C[C@H](C[C@@H](C)[C@@H]2CC(=O)[C@H](C)/C=C(\C)[C@@H](O)[C@@H](OC)C(=O)[C@H](C)C[C@H](C)/C=C/C=C/C=C(\C)[C@@H](OCC3COCCOCCOCCOCCO3)C[C@@H]3CC[C@@H](C)[C@@](O)(O3)C(=O)C(=O)N3CCCC[C@H]3C(=O)O2)CC[C@H]1O (stereo partly drawn) [I-108, (30E, 32E,34E,35E,38R,39S,40R,41R,43S,45S,47S,48S,50R,51R,60R)-50, 60-dihydroxy-48-[(1R)-2-[(1S,3R,4R)-4-hydroxy-3-methoxy-cyclohexyl]-1-methyl-ethyl]-51-methoxy-38, 39,40,41,52,53-hexamethyl-47-(1,4,7,10,13-pentaoxacyclopentadec-2-ylmethoxy)-75, 76-dioxa-61-azatricyclohexatriaconta-30, 32,34(52),35(53)-tetraene-54,55,56,57,58-pentone] | YES |
| 1 to 10 | CO[C@@H]1C[C@H](C[C@@H](C)[C@@H]2CC(=O)[C@H](C)/C=C(\C)[C@@H](O)[C@@H](OC)C(=O)[C@H](C)C[C@H](C)/C=C/C=C/C=C(\C)[C@H](OCCOCCOCCO)C[C@@H]3CC[C@@H](C)[C@@](O)(O3)C(=O)C(=O)N3CCCC[C@H]3C(=O)O2)CC[C@H]1OCCO [I-109, (21E,23E,25E,26E,36R,37S,38R,39R,41S,43S,45R,46S,47R,48R,57R)-47, 57-dihydroxy-45-[2-[2-(2-hydroxyethoxy)ethoxy]ethoxy]-46-[(1R)-2-[(1S,3R, 4R)-4-(2-hydroxyethoxy)-3-methoxy-cyclohexyl]-1-methyl-ethyl]-48-methoxy-36,37,38,39,49,50-hexamethyl-68, 69-dioxa-58-azatricyclohexatriaconta-21,23,25(49),26(50)-tetraene-51,52,53,54,55-pentone] | YES |
| 1 to 10 | CO[C@@H]1C[C@H](C[C@@H](C)[C@@H]2CC(=O)[C@H](C)/C=C(\C)[C@@H](O)[C@@H](OC)C(=O)[C@H](C)C[C@H](C)/C=C/C=C/C=C(\C)[C@H](OCC3COCCOCCOCCO3)C[C@@H]3CC[C@@H](C)[C@@](O)(O3)C(=O)C(=O)N3CCCC[C@H]3C(=O)O2)CC[C@H]1O (stereo partly drawn) [I-111, (28E,30E,32E,33E,36R,37S,38R,39R,41S,43S,45R,46S,48R,49R,58R)-48, 58-dihydroxy-46-[(1R)-2-[(1S,3R,4R)-4-hydroxy-3-methoxy-cyclohexyl]-1-methyl-ethyl]-49-methoxy-36, 37,38,39,50,51-hexamethyl-45-(1,4,7,10-tetraoxacyclododec-2-ylmethoxy)-72,73-dioxa-59-azatricyclohexatriaconta-28, 30,32(50),33(51)-tetraene-52,53,54,55,56-pentone] | YES |
| 0.1 to 1 | CO[C@@H]1C[C@H](C[C@@H](C)[C@@H]2CC(=O)[C@H](C)/C=C(\C)[C@@H](O)[C@@H](OC)C(=O)[C@H](C)C[C@H](C)/C=C/C=C/C=C(\C)[C@@H](OCC3COCCOCCOCCO3)C[C@@H]3CC[C@@H](C)[C@@](O)(O3)C(=O)C(=O)N3CCCC[C@H]3C(=O)O2)CC[C@H]1O (stereo partly drawn) [I-112, (28E,30E,32E,33E,36R,37S,38R,39R,41S,43S,45S,46S,48R,49R,58R)-48, 58-dihydroxy-46-[(1R)-2-[(1S,3R,4R)-4-hydroxy-3-methoxy-cyclohexyl]-1-methyl-ethyl]-49-methoxy-36, 37,38,39,50,51-hexamethyl-45-(1,4,7,10-tetraoxacyclododec-2-ylmethoxy)-72, 73-dioxa-59-azatricyclohexatriaconta-28,30,32(50),33(51)-tetraene-52, 53,54,55,56-pentone] | YES |
| 1 to 10 | CO[C@@H]1C[C@H](C[C@@H](C)[C@@H]2CC(=O)[C@H](C)/C=C(\C)[C@@H](O)[C@@H](OC)C(=O)[C@H](C)C[C@H](C)/C=C/C=C/C=C(\C)[C@H](OCCOCCOCCOCCO)C[C@@H]3CC[C@@H](C)[C@@](O)(O3)C(=O)C(=O)N3CCCC[C@H]3C(=O)O2)CC[C@H]1OCCO [I-114, (21E,23E,25E,26E,38R,39S,40R,41R,43S,45S,47R,48S,49R,50R,59R)-49, 59-dihydroxy-47-[2-[2-[2-(2-hydroxyethoxy)ethoxy]ethoxy]ethoxy]-48-[(1R)-2-[(1S,3R, 4R)-4-(2-hydroxyethoxy)-3-methoxy-cyclohexyl]-1-methyl-ethyl]-50-methoxy-38,39,40,41,51, 52-hexamethyl-70,71-dioxa-60-azatricyclohexatriaconta-21,23,25(51),26(52)-tetraene-53, 54,55,56,57-pentone] | YES |
| 0.1 to 1 | CO[C@@H]1C[C@H](C[C@@H](C)[C@@H]2CC(=O)[C@H](C)/C=C(\C)[C@@H](O)[C@@H](OC)C(=O)[C@H](C)C[C@H](C)/C=C/C=C/C=C(\C)[C@H](OCCOCCO)C[C@@H]3CC[C@@H](C)[C@@](O)(O3)C(=O)C(=O)N3CCCC[C@H]3C(=O)O2)CC[C@H]1OCCO [I-116, (21E,23E,25E,26E,34R,35S,36R,37R,39S,41S,43R,44S,45R,46R,55R)-45, 55-dihydroxy-43-[2-(2-hydroxyethoxy)ethoxy]-44-[(1R)-2-[(1S,3R, 4R)-4-(2-hydroxyethoxy)-3-methoxy-cyclohexyl]-1-methyl-ethyl]-46-methoxy-34,35,36,37,47,48-hexamethyl-66,67-dioxa-56-azatricyclohexatriaconta-21, 23,25(47),26(48)-tetraene-49,50,51,52,53-pentone] | YES |
